Earlier results as cited in patent US12589118B2, “Method of prolonging the lifespan of patients with cerebral autosomal dominant arteriopathy with subcortical infarcts and leukoencephalopathy (CADASIL) using a cerebrolysin® preparation” (EVER NEURO PHARMA GMBH, priority 2017, dated 2026).

Experiments:
[1] = transcranial Doppler
[2] = transcranial Doppler; remark: listed apart in the source
[3] = 200-400 mg bid in 24 months

CC(C)c1c(C(=O)Nc2ccccc2)c(-c2ccccc2)c(-c2ccc(F)cc2)n1CC[C@@H](O)C[C@@H](O)CC(=O)O [Atorvastatin]
effect on cerebral blood flow [1]: no effects

N=C(N)NCCC[C@H](N)C(=O)O [L-arginine]
vasoreactivity [2]: induced-vasoreactivity

C[C@H](O)[C@H](O)[C@H]1CNc2nc(N)[nH]c(=O)c2N1 [Sapropterin]
primary end-point: mean difference in reactive hyperaemia index (improvement of peripheral vasoreactivity) [3]: not significant
